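48-hour exposure; five concentrations; linearly interpolated endpoints. At the GI50, growth is halved.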 Activity calls are given as the source filed them. Rule as the data show it: active = GI50 up to about 1.1 µM and inactive = higher.
Legend:
Experiment in all cases: NCI anticancer screen, dose series, 48 h
786-0 = tested on: 786-0
A498 = tested on: A498
A549 = tested on: A549
ACHN = tested on: ACHN
BT-549 = tested on: BT-549
CCRF-CEM = tested on: CCRF-CEM
COLO 205 = tested on: COLO 205
DU-145 = tested on: DU-145
EKVX = tested on: EKVX
HCT-116 = tested on: HCT-116
HCT-15 = tested on: HCT-15
HL-60 = tested on: HL-60
HOP-62 = tested on: HOP-62
HT-29 = tested on: HT-29
Hs-578T = tested on: Hs-578T
IGROV-1 = tested on: IGROV-1
K562 = tested on: K562
KM12 = tested on: KM12
LOX IMVI = tested on: LOX IMVI
M14 = tested on: M14
MCF7 = tested on: MCF7
MDA-MB-231 = tested on: MDA-MB-231
MDA-MB-435 = tested on: MDA-MB-435
MDA-N = tested on: MDA-N
MOLT-4 = tested on: MOLT-4
Malme-3M = tested on: Malme-3M
NCI-H226 = tested on: NCI-H226
NCI-H23 = tested on: NCI-H23
NCI-H460 = tested on: NCI-H460
NCI-H522 = tested on: NCI-H522
NCI/ADR-RES = tested on: NCI/ADR-RES
OVCAR-3 = tested on: OVCAR-3
OVCAR-4 = tested on: OVCAR-4
OVCAR-5 = tested on: OVCAR-5
OVCAR-8 = tested on: OVCAR-8
PC-3 = tested on: PC-3
RPMI-8226 = tested on: RPMI-8226
RXF 393 = tested on: RXF 393
SF-268 = tested on: SF-268
SF-295 = tested on: SF-295
SF-539 = tested on: SF-539
SK-MEL-28 = tested on: SK-MEL-28
SK-MEL-2 = tested on: SK-MEL-2
SK-OV-3 = tested on: SK-OV-3
SN12C = tested on: SN12C
SNB-19 = tested on: SNB-19
SNB-75 = tested on: SNB-75
SR = tested on: SR
SW-620 = tested on: SW-620
TK-10 = tested on: TK-10
U-251 = tested on: U-251
UACC-257 = tested on: UACC-257
UACC-62 = tested on: UACC-62
UO-31 = tested on: UO-31
CAKI-1 = tested on: CAKI-1
HCC 2998 = tested on: HCC 2998
HOP-92 = tested on: HOP-92
SK-MEL-5 = tested on: SK-MEL-5
T47D = tested on: T47D

**Q.** What does the source list for `C=C[C@@H](C)[C@H](NS(=O)(=O)c1ccc(C)cc1)C(=O)OCC`?
**A.** GI50 (786-0): 40.8 µM (inactive); GI50 (A498): 48.5 µM (inactive); GI50 (A549): 32 µM (inactive); GI50 (ACHN): 35.6 µM (inactive); GI50 (BT-549): 76.4 µM (inactive); GI50 (CCRF-CEM): 28.2 µM (inactive); GI50 (COLO 205): 52.2 µM (inactive); GI50 (DU-145): 37.1 µM (inactive); GI50 (EKVX): 30.8 µM (inactive); GI50 (HCT-116): 35.5 µM (inactive); GI50 (HCT-15): 31.3 µM; GI50 (HL-60): 57 µM (inactive); GI50 (HOP-62): > 100 µM (inactive); GI50 (HT-29): 27.2 µM (inactive); GI50 (Hs-578T): 19.7 µM (inactive); GI50 (IGROV-1): 25.8 µM (inactive); GI50 (K562): 39.7 µM (inactive); GI50 (KM12): 28.1 µM (inactive); GI50 (LOX IMVI): 19.7 µM (inactive); GI50 (M14): 54.1 µM (inactive); GI50 (MCF7): 28.8 µM (inactive); GI50 (MDA-MB-231): > 100 µM (inactive); GI50 (MDA-MB-435): 21.4 µM (inactive); GI50 (MDA-N): 28 µM (inactive); GI50 (MOLT-4): 50.6 µM (inactive); GI50 (Malme-3M): 39.7 µM (inactive); GI50 (NCI-H226): > 100 µM (inactive); GI50 (NCI-H23): 39.4 µM (inactive); GI50 (NCI-H460): 42.2 µM (inactive); GI50 (NCI-H522): 20.6 µM (inactive); GI50 (NCI/ADR-RES): 41.3 µM (inactive); GI50 (OVCAR-3): 20.7 µM (inactive); GI50 (OVCAR-4): 27.2 µM (inactive); GI50 (OVCAR-5): 26.2 µM (inactive); GI50 (OVCAR-8): 40.2 µM (inactive); GI50 (PC-3): 32.4 µM (inactive); GI50 (RPMI-8226): 14 µM (inactive); GI50 (RXF 393): 42.3 µM (inactive); GI50 (SF-268): 32 µM (inactive); GI50 (SF-295): 21.2 µM (inactive); GI50 (SF-539): > 100 µM (inactive); GI50 (SK-MEL-28): 35.9 µM (inactive); GI50 (SK-MEL-2): 33.3 µM (inactive); GI50 (SK-OV-3): 36.6 µM (inactive); GI50 (SN12C): > 100 µM (inactive); GI50 (SNB-19): 74 µM (inactive); GI50 (SNB-75): 15.3 µM (inactive); GI50 (SR): 30.8 µM (inactive); GI50 (SW-620): 40.3 µM (inactive); GI50 (TK-10): 52.6 µM (inactive); GI50 (U-251): 33.5 µM (inactive); GI50 (UACC-257): 24.9 µM (inactive); GI50 (UACC-62): 12.8 µM (inactive); GI50 (UO-31): 31.3 µM (inactive)

**Q.** What does the source list for `COc1cc2c(cc1OCCCCCOc1cc3c(cc1OC)C(=O)N1CCC[C@H]1C(=O)N3)N=C[C@@H]1CCCN1C2=O`?
**A.** GI50 (786-0): 0.0762 µM (active); GI50 (A498): 0.218 µM (active); GI50 (A549): 0.716 µM (active); GI50 (ACHN): 0.206 µM (active); GI50 (BT-549): 0.075 µM (active); GI50 (CAKI-1): 0.839 µM (active); GI50 (CCRF-CEM): < 0.01 µM (active); GI50 (COLO 205): 0.0177 µM (active); GI50 (DU-145): 0.78 µM (active); GI50 (EKVX): 0.279 µM (active); GI50 (HCC 2998): < 0.01 µM (active); GI50 (HCT-116): 0.193 µM (active); GI50 (HCT-15): 3.08 µM; GI50 (HL-60): 0.0817 µM (active); GI50 (HOP-62): 0.14 µM (active); GI50 (HOP-92): 0.0299 µM (active); GI50 (HT-29): 0.116 µM (active); GI50 (Hs-578T): 0.258 µM (active); GI50 (IGROV-1): 0.132 µM (active); GI50 (K562): 0.0453 µM (active); GI50 (KM12): 0.18 µM (active); GI50 (LOX IMVI): 0.0274 µM (active); GI50 (M14): 0.114 µM (active); GI50 (MCF7): 0.0229 µM (active); GI50 (MDA-MB-231): 0.14 µM (active); GI50 (MDA-MB-435): 0.124 µM (active); GI50 (MOLT-4): < 0.01 µM (active); GI50 (Malme-3M): 0.161 µM (active); GI50 (NCI-H226): 0.166 µM (active); GI50 (NCI-H23): 0.21 µM (active); GI50 (NCI-H460): 0.116 µM (active); GI50 (NCI-H522): 0.0112 µM (active); GI50 (NCI/ADR-RES): 7.8 µM (inactive); GI50 (OVCAR-3): 0.165 µM (active); GI50 (OVCAR-4): 0.198 µM (active); GI50 (OVCAR-5): 0.957 µM (active); GI50 (OVCAR-8): 0.225 µM (active); GI50 (PC-3): 0.256 µM (active); GI50 (RPMI-8226): 0.0301 µM (active); GI50 (RXF 393): 0.175 µM (active); GI50 (SF-268): 0.0325 µM (active); GI50 (SF-295): 0.268 µM (active); GI50 (SF-539): 0.0224 µM (active); GI50 (SK-MEL-28): 0.174 µM (active); GI50 (SK-MEL-2): 0.0809 µM (active); GI50 (SK-MEL-5): 0.1 µM (active); GI50 (SK-OV-3): 0.102 µM (active); GI50 (SN12C): 0.0711 µM (active); GI50 (SNB-19): 0.192 µM (active); GI50 (SNB-75): < 0.01 µM (active); GI50 (SR): < 0.01 µM (active); GI50 (SW-620): 0.0875 µM (active); GI50 (T47D): 0.0336 µM (active); GI50 (TK-10): 0.111 µM (active); GI50 (U-251): 0.0225 µM (active); GI50 (UACC-257): 0.237 µM (active); GI50 (UACC-62): 0.0736 µM (active); GI50 (UO-31): 0.762 µM (active)

From ChEMBL document CHEMBL1201862, “PubChem BioAssay data set” (2004)
